Positions of bridges follow the written chain, without caps; N, C: chain ends. Residues, ends and D or L forms follow the SMILES beside them.
Assays:
[1] = system: Escherichia coli (NCTC 10418); assay: Antimicrobial MIC assay, E. coli; assay type: cell-based; conditions: 1 to 512 μM, MHB, 18 h, 37 °C, 6 replicates, absorbance 550 nm; data not shown
Protocol: (§1) Gram-negative bacteria Escherichia coli (NCTC 10418); Gram-positive bacteria Staphylococcus aureus (NCTC 10788) and pathogenic yeast Candida albicans (NCYC 1467) were used in minimum inhibitory concentration (MIC) assays to investigate the board antimicrobial activity ability of synthetic PE-BBI. Microorganisms involved in MIC assays were cultured in MHB for 16–18 h. Then sub-cultured for 2~4 h to allow the microorganism to enter the logarithmic growth phase. Subsequently, proper density of bacterial (1 × 10^6 colony forming units (cfu)/mL) and fungi (1 × 10^5 cfu/mL) were seeded into 96 well plate. Different concentration ranged from 1 to 512 μM of PE-BBI were added into each well (6 replicates per concentration). The absorbance value at 550 nm was detected using a Synergy HT plate reader (Biotech, Minneapolis, MN, USA) after 18 h incubation in 37 °C incubator[50].

[2] = system: Staphylococcus aureus (NCTC 10788); assay: Antimicrobial MIC assay, S. aureus; assay type: cell-based; conditions: 1 to 512 μM, MHB, 18 h, 37 °C, 6 replicates, absorbance 550 nm; data not shown
Protocol: as §1

[3] = system: Candida albicans (NCYC 1467); assay: Antimicrobial MIC assay, C. albicans; assay type: cell-based; conditions: 1 to 512 μM, MHB, 18 h, 37 °C, 6 replicates, absorbance 550 nm; data not shown
Protocol: as §1

[4] = system: rat-tail artery smooth muscle; design: species or system rat (female Wistar)
Protocol: Female Wistar rats (250–300 g) were applied in this study and sacrificed followed the principle of institutional animal experimentation ethics and UK animal research guidelines. All of the procedures involved in this study was approved by IACUC of Queen’s University Belfast. Rat-tail artery and bladder were isolated and located in pre-chilled Kreb’s solution equilibrated with 95% O2, 5% CO2[51]. Isolated muscle strips (2–10 mm) were vertically suspended in a 2 mL organ bath containing 37 °C Kreb’s solution. The Kreb’s solution was constant refreshing by constant flowing (2 mL/min) during the assay. Potassium chloride (KCL, 60 mM) was used to test for viability of muscle strips after 20 min equilibration. After the smooth muscle strip were prepared, the synthetic replicates of PE-BBI (10^−11 to 10^−5 M) was used to quantify the myogenic potency on rat-tail artery and bladder smooth muscle. Between each concentration, the smooth muscle strip was washed 5 mins and re-equilibration for another 5 min. Each data point was repeated on at least five independent muscle strips. The tension change was amplified and recorded by a PowerLab System (AD Instruments Pty Ltd.)[51].

[5] = target: T1, trypsin from bovine pancreas (Bos taurus, UniProt P00760); assay: Trypsin inhibitory assay; assay type: biochemical
T1 construct: purchased Sigma/Aldrich, Poole, Dorset, UK; host or cells: bovine pancreas
T1 sequence (P00760 24-246): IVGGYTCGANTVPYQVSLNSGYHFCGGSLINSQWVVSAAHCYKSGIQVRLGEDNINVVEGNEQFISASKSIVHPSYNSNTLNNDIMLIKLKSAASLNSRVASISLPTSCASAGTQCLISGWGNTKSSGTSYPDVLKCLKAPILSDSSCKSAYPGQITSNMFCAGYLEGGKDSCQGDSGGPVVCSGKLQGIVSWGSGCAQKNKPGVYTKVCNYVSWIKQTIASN

How did the “antimicrobial activity (MIC), E. coli” value [1] turn out when `CC[C@H](C)[C@@H]1NC(=O)[C@H](CO)NC(=O)[C@H](CCCCN)NC(=O)[C@H]([C@@H](C)O)NC(=O)[C@H](Cc2c[nH]c3ccccc23)NC(=O)[C@@H](NC(=O)CNC(=O)[C@H](CCCCN)NC(=O)[C@H](CC(C)C)NC(=O)[C@H](C)NC(=O)CN)CSSC[C@@H](C(=O)N[C@@H](CCCCN)C(N)=O)NC(=O)[C@@H]2CCCN2C(=O)[C@H](CCCCN)NC(=O)[C@@H]2CCCN2C(=O)[C@@H]2CCCN2C1=O` [PE-BBI] (H-GALKGCWTKSIPPKPCK-NH2; disulfide 6-16; N-terminus assumed) was run?
Its value is “didn’t show any obviously antibacterial activity even in the highest concentration (512 μM)”.

And the “antimicrobial activity (MIC), S. aureus” value [2]?
The value was “didn’t show any obviously antibacterial activity even in the highest concentration (512 μM)”.

What about the “antimicrobial activity (MIC), C. albicans” value [3] of the same compound?
Its value is “didn’t show any obviously antibacterial activity even in the highest concentration (512 μM)”.

What about the EC50 [4] of the same compound?
Its EC50 is 8.79 nM.

And the Ki [5]?
Its Ki is 310 ± 72 nM.

And the “mode of trypsin inhibition” value ([5]; PE-BBI 0.1–100 µM)?
The value was “competitive reversible trypsin inhibitory activity”.

— paper PMC6162207, “Identification and pharmaceutical evaluation of novel frog skin-derived serine proteinase inhibitor peptide–PE-BBI (Pelophylax esculentus Bowman-Birk inhibitor) for the potential treatment of cancer” (Scientific Reports, 2018)
